From US10689377B2 (Mirati Therapeutics, Inc., priority 2017, dated 2020) come the findings set out here.

Test [1] deals with KRas G12C (Homo sapiens, UniProt P01116, C118S/C51S/C80L/G12C). As to the kind of experiment: KRas G12C Modification Assay (LCMS detection of covalent adduct). Type of test: binding. The conditions noted are these: normalized percent of control; 5 μM concentration for 3 hours. Here is the method:
A 10 μL aliquot of each protein solution was then transferred to a 384 well microtiter plate. Initial compound stocks were generated at fifty times their desired final assay concentration in DMSO.
Exemplary compounds of Formula (I) were diluted 25-fold into K-Ras Assay Buffer to a final of two times their final concentration. A 10 μL aliquot of each diluted compound solution was then added to each of the protein solutions in the microtiter plate to initiate reaction. […] At each time point, the reactions were quenched with 20 μL of a 25 mM acetic acid solution. […] Once all reactions were quenched, the plates were heat sealed and the samples were injected into a LC/MS system for data acquisition.
Samples were injected in their liquid phase onto a C-3 reverse phase column to remove assay buffer and prepare the samples for mass spectrometer. The proteins were eluted from the column using an acetonitrile gradient and fed directly into the mass analyzer. Initial raw data analysis took place in Agilent MassHunter software immediately post data acquisition.
Raw data analysis of the intact protein was exclusively a deconvolution of the multiple charge states of each protein in solution using a maximum entropy deconvolution provided in Mass Hunter. To minimize complexity, only the data over limited mass ranges were considered for analysis, with a minimum of one Dalton mass step intervals. The heights of all masses identified during raw data analysis were exported to be further analyzed in Spotfire® data analysis software.
Final data analysis was a multistep process in the Spotfire® data analysis software package. Briefly, each protein mass was calculated as a percent of the total signal of that sample, that percentage was then normalized to the percentage of signal of the protein in the absence of reactive compounds. Those normalized signals were reported as normalized percent of control (POC). […] Key: “A”≤25% POC; “B”>25% POC-≤50% POC; “C”>50% POC and ND=not determined.

Test [2] has as its target KRas G12C (Homo sapiens, UniProt P01116, G12C). Kind of test: Cellular inhibition of KRas G12C measured by Phospho-ERK in NCI-H358 cells. Format: cell-based. Particulars: pERK(Thr202/Tyr204) normalized with GAPDH, NCI-H358 cells, 3 hours; read-out: IC50. In short, it runs like this:
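NCI-H358 cells treated 3 h with compound (0.5% DMSO final), then fixed and methanol-permeabilised. In-cell immunofluorescence measured pERK(Thr202/Tyr204) normalised to GAPDH as percent of DMSO control. IC50 from a 4-parameter dose-response fit.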

The IC50 is the midpoint of a concentration-inhibition curve.

Take `C=CC(=O)N1CCN(c2nc(OC[C@@H]3CCCN3C)nc3c2CCN(c2ccccc2C(F)(F)F)C3)CC1CC#N` (stereo partly drawn) [Example 210, 2-(1-acryloyl-4-(2-(((S)-1-methylpyrrolidin-2-yl)methoxy)-7-(2-(trifluoromethyl)phenyl)-5,6,7,8-tetrahydropyrido[3,4-d]pyrimidin-4-yl)piperazin-2-yl)acetonitrile]: the POC result on KRas G12C [1] is “C (“C”>50% POC)”. Also, the IC50 on KRas G12C [2] was in the range of 0.1 to 1000 nM.
On the same counts, the results for `C=C(F)C(=O)N1CCN(c2nc(OC[C@@H]3CCCN3CCF)nc3c2CCN(c2cccc4cccc(Cl)c24)C3)C[C@@H]1CC#N` [Example 598, 2-((S)-4-(7-(8-Chloronaphthalen-1-yl)-2-(((S)-1-(2-fluoroethyl)pyrrolidin-2-yl)methoxy)-5,6,7,8-tetrahydropyrido[3,4-d]pyrimidin-4-yl)-1-(2-fluoroacryloyl)piperazin-2-yl)acetonitrile] are “C (“C”>50% POC)” and 0.1 to 1000 nM.
On the same counts, the results for `C=C(F)C(=O)N1CCN(c2nc(OC[C@@H]3CC(F)(F)CN3C)nc3c2CCN(c2cccc4cccc(Cl)c24)C3)C[C@@H]1CC#N` [Example 543] are “C (“C”>50% POC)” and 0.1 to 1000 nM.
On to `Cc1cccc2cccc(N3CCc4c(nc(OC[C@@H]5C[C@@H](F)CN5C)nc4N4CCN(C(=O)/C=C/CF)[C@@H](CC#N)C4)C3)c12` [Example 578, 2-[(2S)-1-[(E)-4-Fluorobut-2-enoyl]-4-[2-[[(2S,4R)-4-fluoro-1-methyl-pyrrolidin-2-yl]methoxy]-7-(8-methyl-1-naphthyl)-6,8-dihydro-5H-pyrido[3,4-d]pyrimidin-4-yl]piperazin-2-yl] acetonitrile], for which the POC entry at KRas G12C [1] was “C (“C”>50% POC)”. On KRas G12C [2], the IC50 is 0.1 to 1000 nM.
In the same order, the values of `Cc1cccc(N2CCc3c(nc(OC[C@@H]4CCCN4C)nc3N3CCN(C(=O)C4=CCC4)[C@@H](CC#N)C3)C2)c1C` [Example 392, 2-((S)-1-(cyclobut-1-ene-1-carbonyl)-4-(7-(2,3-dimethylphenyl)-2-(((S)-1-methylpyrrolidin-2-yl)methoxy)-5,6,7,8-tetrahydropyrido[3,4-d]pyrimidin-4-yl)piperazin-2-yl)acetonitrile] are “C (“C”>50% POC)” and above 1000 nM.
On the same counts, the results for `C=C(F)C(=O)N1CCN(c2nc(OC[C@@H]3CCCN3C)nc3c2CCN(c2cncc(Cl)c2C(F)(F)F)C3)C[C@@H]1CC#N` [Example 600, 2-((S)-4-(7-(5-Chloro-4-(trifluoromethyl)pyridin-3-yl)-2-(((S)-1-methylpyrrolidin-2-yl)methoxy)-5,6,7,8-tetrahydropyrido[3,4-d]pyrimidin-4-yl)-1-(2-fluoroacryloyl)piperazin-2-yl)acetonitrile] are “C (“C”>50% POC)” and 0.1 to 1000 nM.
For `C=CC(=O)N1CCN(c2nc(OC[C@@H]3CCCN3C)nc3c2CCN(c2c(C)c(C)cc4[nH]ccc24)C3)C[C@@H]1CC#N` [Example 466, 2-((S)-1-acryloyl-4-(7-(5,6-dimethyl-1H-indol-4-yl)-2-(((S)-1-methylpyrrolidin-2-yl)methoxy)-5,6,7,8-tetrahydropyrido[3,4-d]pyrimidin-4-yl)piperazin-2-yl)acetonitrile], the POC result at KRas G12C [1] is reported as “C (“C”>50% POC)”. For the same compound, the IC50 at KRas G12C [2] lay within 0.1 to 1000 nM.
On the same counts, the results for `C=C(F)C(=O)N1CCN(c2nc(OC[C@@H]3CCCN3Cc3ccccc3)nc3c2CCN(c2cccc4cccc(C)c24)C3)C[C@@H]1CC#N` [Example 596, 2-((S)-4-(2-(((S)-1-Benzylpyrrolidin-2-yl)methoxy)-7-(8-methylnaphthalen-1-yl)-5,6,7,8-tetrahydropyrido[3,4-d]pyrimidin-4-yl)-1-(2-fluoroacryloyl)piperazin-2-yl)acetonitrile] are “C (“C”>50% POC)” and 0.1 to 1000 nM.
In the case of `Cc1cccc2cccc(N3CCc4c(nc(OC[C@@H]5CCCN5C)nc4N4CCN(C(=O)/C=C/c5cccnc5)[C@@H](CC#N)C4)C3)c12` [Example 496, 2-((S)-4-(7-(8-methylnaphthalen-1-yl)-2-(((S)-1-methylpyrrolidin-2-yl)methoxy)-5,6,7,8-tetrahydropyrido[3,4-d]pyrimidin-4-yl)-1-((E)-3-(pyridin-3-yl)acryloyl)piperazin-2-yl)acetonitrile], at KRas G12C [1], the POC result is given as “C (“C”>50% POC)”. Also, the IC50 on KRas G12C [2] lay in the range of 0.1 to 1000 nM.
In the same order, the values of `CC#CC(=O)N1CCN(c2nc(OC[C@@H]3CCCN3C)nc3c2CCN(c2cccc4ccccc24)C3)CC1CC#N` (stereo partly drawn) [Example 242, 2-(1-(but-2-ynoyl)-4-(2-(((S)-1-methylpyrrolidin-2-yl)methoxy)-7-(naphthalen-1-yl)-5,6,7,8-tetrahydropyrido[3,4-d]pyrimidin-4-yl)piperazin-2-yl)acetonitrile] are “C (“C”>50% POC)” and 0.1 to 1000 nM.
In the same order, the values of `C=CC(=O)N1CCN(c2nc(OCCCN3CCOCC3)nc3c2CCN(c2c(C)c(O)cc4ccccc24)C3)CC1` [Example 173, 1-(4-(7-(3-hydroxy-2-methylnaphthalen-1-yl)-2-(3-morpholinopropoxy)-5,6,7,8-tetrahydropyrido[3,4-d]pyrimidin-4-yl)piperazin-1-yl)prop-2-en-1-one] are “C (“C”>50% POC)” and above 1000 nM.
On the same counts, the results for `CC(=O)N(C)C/C=C/C(=O)N1CCN(c2nc(OC[C@@H]3CCCN3C)nc3c2CCN(c2cccc4cccc(C)c24)C3)C[C@@H]1CC#N` [Example 587] are “A (“A”≤25% POC)” and above 1000 nM.
Consider `CC(C)=CC(=O)N1CCN(c2nc(OC[C@@H]3CCCN3C)nc3c2CCN(c2cccc4ccccc24)C3)CC1CC#N` (stereo partly drawn) [Example 282, 2-(1-(3-methylbut-2-enoyl)-4-(2-(((S)-1-methylpyrrolidin-2-yl)methoxy)-7-(naphthalen-1-yl)-5,6,7,8-tetrahydropyrido[3,4-d]pyrimidin-4-yl)piperazin-2-yl)acetonitrile], for which the IC50 on KRas G12C [2] is above 1000 nM.
On the same count and under the same terms, as for `C=CC(=O)N1CCN(c2nc(OCCCN3CCOCC3)nc3c2CCN(c2cc(O)cc4ccccc24)C3)CC1` [Example 74, 1-(4-(7-(3-hydroxynaphthalen-1-yl)-2-(3-morpholinopropoxy)-5,6,7,8-tetrahydropyrido[3,4-d]pyrimidin-4-yl)piperazin-1-yl)prop-2-en-1-one], the figure is 0.1 to 1000 nM; as for `C=CC(=O)N1CCN(c2nc(OC(C)CCN(C)C)nc3c2CCN(c2cc(O)cc4ccccc24)C3)CC1` (stereo not shown) [Example 21, 1-(4-(2-((4-(dimethylamino)butan-2-yl)oxy)-7-(3-hydroxynaphthalen-1-yl)-5,6,7,8-tetrahydropyrido[3,4-d]pyrimidin-4-yl)piperazin-1-yl)prop-2-en-1-one], 0.1 to 1000 nM.
Still for that read-out and setting: as for `C=CC(=O)N1CCN(c2nc(OC[C@@H]3CCCN3CCOC)nc3c2CCN(c2cccc4ccccc24)C3)CC1CC#N` (stereo partly drawn) [Example 380, 2-(1-acryloyl-4-(2-(((S)-1-(2-methoxyethyl)pyrrolidin-2-yl)methoxy)-7-(naphthalen-1-yl)-5,6,7,8-tetrahydropyrido[3,4-d]pyrimidin-4-yl)piperazin-2-yl)acetonitrile], the figure is 0.1 to 1000 nM; as for `C=CC(=O)N1CCN(c2nc(OC[C@@H]3CCCN3C(C)C)nc3c2CCN(c2cccc4ccccc24)C3)C[C@@H]1CC#N` [Example 320, 2-[(2S)-4-[2-[[(2S)-1-isopropylpyrrolidin-2-yl]methoxy]-7-(1-naphthyl)-6,8-dihydro-5H-pyrido[3,4-d]pyrimidin-4-yl]-1-prop-2-enoyl-piperazin-2-yl]acetonitrile], 0.1 to 1000 nM.
The same measure, in the same setting: as for `C=CC(=O)N1CCN(c2nc(OC[C@@H]3CCN(C)C3)nc3c2CCN(c2cccc4cccc(Cl)c24)C3)C[C@@H]1CC#N` [Example 361, 2-[(2S)-4-[7-(8-chloro-1-naphthyl)-2-[[(3R)-1-methylpyrrolidin-3-yl]methoxy]-6,8-dihydro-5H-pyrido[3,4-d]pyrimidin-4-yl]-1-prop-2-enoyl-piperazin-2-yl]acetonitrile], the figure is 0.1 to 1000 nM; as for `C=CC(=O)N1CCN(c2nc(NC[C@@H]3CCCN3C)nc3c2CCN(c2cccc4ccccc24)C3)C[C@@H]1CC#N` [Example 408, 2-((S)-1-acryloyl-4-(2-((((S)-1-methylpyrrolidin-2-yl)methyl)amino)-7-(naphthalen-1-yl)-5,6,7,8-tetrahydropyrido[3,4-d]pyrimidin-4-yl)piperazin-2-yl)acetonitrile], above 1000 nM.
